“Also recorded” adds a separate entry of the source.
Columns and labels:
Sarcina lutea = assay: Paper disc agar antimicrobial activity assay (inhibitory zone); assay type: cell-based; design: key to Diameter of inhibitory zone: ±: inhibitory zone slightly observed; +: inhibitroy zone < 7mm; conditions: paper disc 6 mm, 37 °C, 12 hours incubation
Experimental: (§1) The compound (Ia) dissolved in chloroform is immersed in paper disc, diameter 6 mm, and dried on a filter paper. Microbial strains shown in Table 1 are inoculated in agar medium, and paper discs hereinabove 1) are placed thereon then incubated at the temperature shown in the Table. Diameter of inhibitory zone is measured after 12 hours incubation.

Bacillus subtilis = assay: as above; assay type: cell-based; design: key to Diameter of inhibitory zone: ±: inhibitory zone slightly observed; +: inhibitroy zone < 7mm; conditions: paper disc 6 mm, 37 °C, 12 hours incubation
Experimental: as §1

Escherichia coli = assay: as above; assay type: cell-based; design: key to Diameter of inhibitory zone: ±: inhibitory zone slightly observed; +: inhibitroy zone < 7mm; conditions: paper disc 6 mm, 37 °C, 12 hours incubation
Experimental: as §1

[1] = Acute toxicity, intraperitoneal administration; conditions: mouse, in vivo, ip, mice, in physiological saline containing gum arabic, read-out: LD₅₀
Experimental: A compound, 1 - 5 mg, dissolved in physiological saline 0.2 ml containing gum arabic is administered intra peritoneally in mice, body weight 25 g, 10 mice in one group. LD₅₀ is over 200 mg/kg.

[2] = Physico-chemical properties (solubility, nature); assay type: physicochemical
Saccharomyces sake = assay: Paper disc agar antimicrobial activity assay (inhibitory zone); assay type: cell-based; conditions: paper disc 6 mm, 27 °C, 12 hours incubation, read-out: Diameter of inhibitory zone
Experimental: as §1

Staphylococcus aureus = assay: as above; assay type: cell-based; conditions: paper disc 6 mm, 37 °C, 12 hours incubation, read-out: Diameter of inhibitory zone
Experimental: as §1

With `COC1=C(OC)C(=O)c2c(O)c3c(c(O)c2C1=O)OCO3` [Ia, 5,8-dihydroxy-2,3-dimethoxy-6,7-methylenedioxy-1,4-naphthoquinone] the zone of inhibition at 56 µg/mL (Sarcina lutea; Micrococcus luteus, sample density 56 μg/m ℓ, read-out: Diameter of inhibitory zone) was < 7 mm, the zone of inhibition at 112 µg/mL (Sarcina lutea; Micrococcus luteus, sample density 112 μg/m ℓ, read-out: Diameter of inhibitory zone) was 7.4 mm and the zone of inhibition at 224 µg/mL (Sarcina lutea; Micrococcus luteus, sample density 224 μg/m ℓ, read-out: Diameter of inhibitory zone) was 7.4 mm. For the same molecule, the zone of inhibition at 448 µg/mL (Sarcina lutea; Micrococcus luteus, sample density 448 μg/m ℓ, read-out: Diameter of inhibitory zone) was 7.4 mm, the “Diameter of inhibitory zone” value (Sarcina lutea; sample density 14 μg/m ℓ) was “±” and the “Diameter of inhibitory zone” value (Sarcina lutea; sample density 28 μg/m ℓ) was “±”. It also gave a zone of inhibition at 14 µg/mL (Bacillus subtilis; Bacillus subtilis, sample density 14 μg/m ℓ, read-out: Diameter of inhibitory zone) of 7.1 mm, a zone of inhibition at 28 µg/mL (Bacillus subtilis; Bacillus subtilis, sample density 28 μg/m ℓ, read-out: Diameter of inhibitory zone) of 9.5 mm and a zone of inhibition at 56 µg/mL (Bacillus subtilis; Bacillus subtilis, sample density 56 μg/m ℓ, read-out: Diameter of inhibitory zone) of 8.6 mm. It also gave a zone of inhibition at 112 µg/mL (Bacillus subtilis; Bacillus subtilis, sample density 112 μg/m ℓ, read-out: Diameter of inhibitory zone) of 13.3 mm, a zone of inhibition at 224 µg/mL (Bacillus subtilis; Bacillus subtilis, sample density 224 μg/m ℓ, read-out: Diameter of inhibitory zone) of 13.3 mm and a zone of inhibition at 448 µg/mL (Bacillus subtilis; Bacillus subtilis, sample density 448 μg/m ℓ, read-out: Diameter of inhibitory zone) of 15.5 mm. For the same molecule, the “Diameter of inhibitory zone” value (Bacillus subtilis; sample density 7 μg/m ℓ) was “±**”, the zone of inhibition at 112 µg/mL (Escherichia coli; Escherichia coli, sample density 112 μg/m ℓ, read-out: Diameter of inhibitory zone) was < 7 mm and the zone of inhibition at 224 µg/mL (Escherichia coli; Escherichia coli, sample density 224 μg/m ℓ, read-out: Diameter of inhibitory zone) was < 7 mm. The zone of inhibition at 448 µg/mL (Escherichia coli; Escherichia coli, sample density 448 μg/m ℓ, read-out: Diameter of inhibitory zone) was < 7 mm, the “Diameter of inhibitory zone” value (Escherichia coli; sample density 56 μg/m ℓ) was “±” and the LD50 [1] was > 200 mg/kg. For the same molecule, the nature [2] was “acidic substance (water soluble under alkaline conditions)”, the solubility ([2]; acidic conditions, in organic solvent) was “soluble” and the solubility ([2]; acidic conditions, in water) was “insoluble”. For the same molecule, the solubility ([2]; alkaline conditions, in organic solvents) was “insoluble”, the solubility ([2]; alkaline conditions, in water) was “easily soluble; also recorded: easily soluble under neutral and acidic conditions in organic solvents such as methanol, acetone, ethyl acetate, chloroform or benzene; easily soluble under alkaline conditions in water” and the solubility ([2]; neutral and acidic conditions, in organic solvents such as methanol, acetone, ethyl acetate, chloroform or benzene) was “easily soluble; also recorded: easily soluble under neutral and acidic conditions in organic solvents such as methanol, acetone, ethyl acetate, chloroform or benzene; easily soluble under alkaline conditions in water”. For the same molecule, the zone of inhibition at 56 µg/mL (Saccharomyces sake; sample density 56 μg/m ℓ) was < 7 mm, the zone of inhibition at 224 µg/mL (Saccharomyces sake; sample density 224 μg/m ℓ) was 7 mm and the zone of inhibition at 448 µg/mL (Saccharomyces sake; sample density 448 μg/m ℓ) was 7.3 mm. The zone of inhibition at 28 µg/mL (Staphylococcus aureus; sample density 28 μg/m ℓ) was < 7 mm, the zone of inhibition at 56 µg/mL (Staphylococcus aureus; sample density 56 μg/m ℓ) was < 7 mm and the zone of inhibition at 112 µg/mL (Staphylococcus aureus; sample density 112 μg/m ℓ) was < 7 mm. The zone of inhibition at 224 µg/mL (Staphylococcus aureus; sample density 224 μg/m ℓ) was 7.7 mm and the zone of inhibition at 448 µg/mL (Staphylococcus aureus; sample density 448 μg/m ℓ) was 8.45 mm.
